Test results published in patent US20070166414A1, “METHOD FOR ENHANCING TAMOXIFEN EFFICACY AS A CANCER THERAPEUTIC” (priority 2006, published 2007).
“Also recorded” adds a separate entry of the source.

Legend:
endometrium DNA damage = experiment: DNA damage in endometrium by comet assay; format: in vivo, female rats; conditions: diet 28 or 185 days, vs basal diet
Description: (§1) Four groups of female rats were fed the basal AIN-76A diet supplemented with: 1) vehicle (control), (2) tamoxifen (0.125 mg/Kg), (3) daidzein (140 mg/Kg), (4) tamoxifen (0.125 mg/Kg) plus daidzein (140 mg/Kg) combination. Rats were sacrificed at either 28 days (short term exposure) or 185 days (long term exposure) after diet initiation, and the endometrium was removed and processed for immunohistochemical and biochemical evaluations.

[1] = tested on: 8-oxo-deoxyguanosine (8-oxo-dG); experiment: LC-UV-MS-MS quantification of 8-oxo-dG (oxidative DNA damage) in normal mammary glands; format: in vivo, female Sprague-Dawley rats; conditions: in words, vs +control (DMBA); FIG. 3
Description: DNA Hydrolysis. DNA was extracted from normal mammary tissue from six different rats from each group and dissolved in water at ˜2 mg/mL. Aliquots (50-μL) containing ˜100 μg of DNA were mixed with 50 μL of buffer (50 mM ammonium acetate, 0.2 mM ZnCl2, pH 5.3), 10 μL of nuclease P1 (0.4 unit/μL), and 8 μL of alkaline phosphatase (1 unit/μL in 10 mM Tris pH 7.4) and incubated at 37° C. for 30 minutes. […] Bedford, Mass. USA). The solution was centrifuged for 15 minutes at 12,000 rpm and 4° C. just before LC-UV-MS-MS analysis. LC-UV-MS-MS Quantification of Oxidized Nucleosides. The HPLC system consisted of a ThermoFinnigan (San Jose, Calif. USA) Surveyor MS pump coupled with an autosampler, a PDA detector and a YMC (Wilmington, N.C. USA) ODS-AQ C18 column (2.0×250 mm, 5 μm), and guard column (4.0×20 mm). Absorbance detection at 240-290 nm was used for on-line HPLC quantification of dG and dC in the DNA hydrolysate, and a standard curve was prepared using standard solutions of dG and dC in the initial mobile phase. […] For DNA oxidation, the solvent system consisted of water/methanol 90:10 (v/v) at the start point and a linear gradient from 10 to 25% (v/v) methanol over 0-25 min. […] Selected reaction monitoring (SRM) was carried out using a TSQ Quantum triple quadruple mass spectrometer equipped with negative ion (for DNA oxidation) electrospray ionisation. Nitrogen was used as the sheath gas and auxiliary gas at 25 and 10 arbitrary units, respectively. The spray voltage was […]. Collision-induced dissociation (CID) was carried out using argon at 1.0-1.5 mTorr with the collision energy of 10-20 V. The span time per ion channel was 0.5 seconds during SRM. For 8-oxo-deoxyguanosine (8-oxo-dG), m/z 282>192 was selected as SRM (m/z 297>204 for the isotopically labelled internal standard). For 5-MedC, m/z 242>126 was selected as SRM (m/z 245>129 for the isotopically labelled internal standard).

[2] = tested on: proliferating cell nuclear antigen (PCNA); experiment: PCNA staining of endometrial tissue; format: in vivo, female rats; conditions: endometrium gland and stroma, diet 28 and 185 days, vs basal diet
Description: as §1

[3] = tested on: DMBA-induced rat mammary carcinogenesis; experiment: Chemoprevention study: DMBA-induced mammary tumors in rats fed experimental diets; conditions: for Survival (%): n=20; for Final tumor incidence: n=20, 114 days, * P<0.05, ** P<0.01 vs control (Fisher's exact test); for Latency (P-: P-value vs +control (DMBA) group, unpaired t-test; for Tumor burden (average tumor weight per group): in words, vs control (FIG. 2b)
Description: Chemoprevention Study. The diets were formulated by Harlan-Teklad (Madison, Wis. USA) to contain approximately the same amounts of protein, fat, and carbohydrates. The basal diet AIN-76A is free of soy products. The diets were also adjusted to contain similar amounts of methionine, cystine, and choline because these nutrients have been reported to affect mammary carcinogenesis. Daidzein and genistein were added in the basal diets as necessary (Table 1), at 140 and 105 mg/Kg of diet respectively. The selected isoflavone concentrations were based on the amounts present in the well-tolerated 16% (w/w) S PI diet (13). The tam oxifen dose of 0.125 mg/Kg diet was selected based on a previous study (24).
Virgin female Sprague-Dawley rats at 35 days of age were randomized by weight into 5 groups (20 rats per group) and fed basal AIN-76A diet. At 43 days of age, all but the control groups received basal diet supplemented with the appropriate test agents. After an additional week the animals received a single dose (12.5 mg) of DMBA intragastrically in sesame oil.
During the experimental period, the animals were weighed weekly. Palpation of mammary tumors began four weeks after animals received DMBA and continued until termination of the study. The date of appearance and location of every palpable tumor were recorded. Rats were observed daily to assess their general health. Rats were sacrificed by CO2 asphyxiation. Mammary tumors were coded by location, removed from the rat, and weighed. Sections of normal mammary tissue were also taken and either flash frozen in liquid nitrogen or formalin-fixed for paraffin embedding. The experiment and protocol was approved and performed in compliance with relevant laws and institutional guidelines according to the Animal Care Committee (01-142) and Animal Welfare Assurance (A3460.01) at the University of Illinois at Chicago.
Statistical analysis. A significant inhibition of tumor induction as achieved by administration of an inhibitor was defined as a statistically significant decrease (at 5% level) in tumor incidence, multiplicity, or latency period. Statistical comparison of tumor latency between groups was by unpaired t-test. The statistical significance of differences between mean tumor multiplicities was assessed using analysis of variance (ANOVA), and the Armitage'stest for trends in proportions (25). Tumor incidence rates were generated by the life table method, and compared by (one tailed) log-rank analysis (25).

PTEN = PTEN staining of endometrial tissue; format: in vivo, female rats; conditions: endometrium, diet 28 and 185 days
Description: as §1

[4] = LC-MS analysis of serum isoflavone levels; design: species or system female rats; conditions: rat, in vivo
Description: LC-MS analysis of isoflavone levels. Serum isoflavone levels of animals on the diets for four weeks without DMBA treatment were analysed. Blood was collected by orbital bleeding. Serum (400 μL) from each sample was transferred into a 2-mL Eppendorf tube. To each tube, 100 μL of 1 M (pH 5.0) buffer was added followed by vortex mixing, then 40 μL sulphatase (50 mg/mL, Sigma # S-3009) enzyme solution was added. After shaking, the mixture was incubated overnight in a 37° C. water bath (>17 h). The enzymatic hydrolysis was stopped by adding 1 mL ice-cold ethanol/acetonitrile (1:1; v/v), mixed and centrifuged at 4° C. for 15 minutes (10,000 rpm). The supernatant was removed and evaporated to dryness under vacuum. The resulting residue was reconstituted with 150 μL internal standard solution, and three aliquots (15 μL each) were analysed using LC-MS (HP 1100 LC-MS D) over an Xterra RP-18 column (2.1×100 mm, 3.5 μm). The mobile phase was 0.1% (v/v) formic acid followed by acetonitrile (containing 0.1% (v/v) formic acid). Elution was at 200 μL/min. The MSD was operated in negative electrospray ionisation mode with selected ion monitoring of m/z 253 for daidzein and internal standard (chrysin), m/z 269 for genistein, and m/z 241 for equol. Three to four samples from each group were analysed and resulting values are mean± SD.

[5] = tested on: implanted oestrogen-dependent MCF-7 cells; conditions: athymic mice; Cancer Research 62: 2474-2477; cited from earlier work
[6] = LC-MS analysis of serum isoflavone levels; format: in vivo, female rats; conditions: diet for four weeks, no DMBA; 3-4 rats per group; ± SEM
[7] = female, Sprague-Dawley, 4 weeks

Compound | 8-oxo-dG levels (ratio 8-oxo-dG/dG) in mammary glands [1] | Survival (%) ([3]; DMBA-exposed rats on diet) | Final tumor incidence ([3]; DMBA-exposed rats on diet) | Latency (P- [3] | Tumor burden (average tumor weight per group) [3] | Mean body weight ([3]; rat, in vivo) | Mean serum level of DAI (daidzein) [4, 7] [ng/mL] | Mean serum level of Equol [4, 7] [ng/mL] | Mean serum level of GEN (genistein) [4, 7] [ng/mL] | Mean serum level of Equol [4] | Mean serum level of GEN (genistein) [4] | other results
O=c1c(-c2ccc(O)cc2)coc2cc(O)ccc12 [DAI, 7-hydroxy-3-(4-hydroxyphenyl)-4H-1-benzopyran-4-one] | suppressed the levels of 8-oxo-dG equal to those of the group never exposed to DMBA | 95 | 85 | 0.322 | reduced tumor burden as effectively as tamoxifen | 99.2 | 3.6 ± 0.9 | 115.0 ± 20.6 | 1.2 ± 4.7 | very high concentrations | very low levels | DNA damage (comet assay) (endometrium DNA damage; listed as Daidzein): no damaging effect; DNA damage (comet assay) (endometrium DNA damage; listed as diadzein): did not affect the level of DNA damage; PCNA expression ([2]; listed as daidzein): increased expression of PCNA; PCNA expression ([2]; listed as diadzein): increased PCNA; PTEN expression (PTEN; listed as daidzein): reduction in PTEN expression; PTEN expression (PTEN; listed as diadzein): reduced PTEN expression
O=c1c(-c2ccc(O)cc2)coc2cc(O)cc(O)c12 [GEN, genistein] | ineffective | 95 | 85 | 0.326 | ineffective | – | – | – | – | – | – | Effect on tamoxifen inhibition of growth of implanted MCF-7 cells [5]: negated the inhibitory effect of tamoxifen; Mean serum level of DAI (daidzein) [6]: very low levels; Mean serum level of Equol [6]: not detectable; Mean body weight ([3]; DMBA-exposed rats on diet, control = 100.0): 100.7
CC/C(=C(\c1ccccc1)c1ccc(OCCN(C)C)cc1)c1ccccc1 [TAM, tamoxifen] | ineffective | 90 | 73* | 0.013 | – | 94.4 | 0.2 ± 0.0 | 0.0 | 0.8 ± 0.1 | not detectable | very low levels | DNA damage (comet assay) (endometrium DNA damage; listed as Tamoxifen): significantly increased DNA damage; DNA damage (comet assay) (endometrium DNA damage; listed as tamoxifen): increased DNA damage; PCNA expression [2]: increased expression of PCNA; also recorded: increased proliferating cell nuclear antigen (PCNA) expression; Increase of tumor latency over the control value ([3]; compared to positive control): 46%; PTEN expression (PTEN): reduction in PTEN expression; also recorded: reduced PTEN expression; Mean serum level of DAI (daidzein) [4]: very low levels
